Read-outs that look alike come from different tables or passages of the source.

The target of data set [1] is T1, L. donovani TryR (Leishmania donovani, UniProt P39050).
T1 construct: endogenous in cells; host or cells: L. donovani-iRFP (LV9) axenic amastigotes, crude cell extract
The data set is described as follows: biochemical. Conditions: for Type of inhibition: Lineweaver-Burk double reciprocal plot, varying T[S]2. The procedure:
The activity of L. donovani TryR was measured in the presence of different concentrations of nitrofurans according to the protocol previously described ([Melcón-Fernández et al., 2023]). Briefly, 1 × 10^10 L. donovani-iRFP axenic amastigotes were washed twice in PBS and lysed with a solution containing 1 mM EDTA, 40 mM HEPES, 50 mM Tris HCl pH 7.5, 2 % (v/v) Triton X-100 and Pierce™ Protease Inhibitors Mini Tablets (ThermoFisher Scientific, Waltham, MA, USA). Cell extracts were prepared by mechanical disruption of the cells with 0.5 mm diameter glass beads (Merck, Darmstadt, Germany) and the supernatant obtained by centrifugation at 10,000 rcf for 5 min at 4 °C was used to measure TryR activity in 96-well plates. […] Cell extracts diluted in Tris HCl pH 7.5 (0.43 μg of total protein in 50 μL) were added to launch the reaction. The negative control consisted of 2.5 % DMSO, whereas the blank reaction included the TryR assay solution without T [S]2. […] To determine steady-state conditions, enzymatic activity was measured at 412 nm (ε = 14,150 M^−1 cm^−1) for a period of up to 120 min (with 5 min intervals) at 26 °C in a Varioskan Lux spectrophotometer (ThermoFisher Scientific, Waltham, MA, USA). The experiment was carried out in triplicate and included three technical replicates.

Data set [2] in a line: Cytotoxicity, alamarBlue, 72 h. The format is cell-based, murine. Conditions: mouse, RAW 264.7 cells; 72 h, alamarBlue; read-out: RAW 264.7 cells CC50. The procedure: (§1) For cytotoxicity tests, several mammalian cell lines were used. […] Primary cell cultures were also used to evaluate cytotoxicity. […] BMDM cells were differentiated for one week with 30 % […] from L929 cell line.
(§2) The in vitro cytotoxicity of the selected nitrofurans was evaluated in HepG2, RAW 264.7 cells, splenocytes and BMDM. In each well of a 96-well microtitre plate, 100 μL containing 10,000 HepG2 or RAW 264.7 cells were incubated for 24h at 37 °C and 5 % CO2 to allow the cells to settle. For primary cells, 100 μL containing 100,000 BMDM or 1,000,000 splenocytes were added to each well. Subsequently, […] of one-half serial dilutions of each compound diluted in DMEM (for HepG2 cells), RPMI medium (for RAW cells), splenocyte medium (for splenocytes) or BMDM medium supplemented with 10 % GM-CSF (for BMDM), were added to each well. The cytotoxic effect of the compounds was measured after 72 h of incubation at 37 °C and 5 % CO2. For this purpose, a 10 % (v/v) of the alamarBlue™ cell viability reagent (Invitrogen, Fisher Scientific International Inc., Pittsburgh, PA, USA) was added, and the reaction was incubated for 4 h at 37 °C and 5 % CO2. Fluorescence was measured using a Varioskan Lux spectrophotometer (ThermoFisher Scientific, Waltham, MA, USA). Positive controls consisting of 0.1 % (v/v) H2O2, and negative controls, consisting of 0.1 % (v/v) DMSO, were also included on each plate.
(§3) All experiments were carried out in triplicate and included at least three technical replicates. […] The SI was calculated from the CC50/EC50 ratio.
Background: Alamar Blue is a resazurin reagent that responds to reducing activity.

Data set [3] can be described thus: Cytotoxicity in bone marrow-differentiated macrophages, alamarBlue, 72 h. The format is cell-based. Conditions: mouse, bone marrow-differentiated macrophages (BMDM); 72 h, alamarBlue, uninfected mice; read-out: BMDM CC50. How it is done: as §1, §2, §3
Where [4] appears, read: T[S]2 25-150 μM, inhibitor 6.25-100 μM, NADPH 0.20 mM, read-out: Ki.

T1 sequence (P39050 whole entry): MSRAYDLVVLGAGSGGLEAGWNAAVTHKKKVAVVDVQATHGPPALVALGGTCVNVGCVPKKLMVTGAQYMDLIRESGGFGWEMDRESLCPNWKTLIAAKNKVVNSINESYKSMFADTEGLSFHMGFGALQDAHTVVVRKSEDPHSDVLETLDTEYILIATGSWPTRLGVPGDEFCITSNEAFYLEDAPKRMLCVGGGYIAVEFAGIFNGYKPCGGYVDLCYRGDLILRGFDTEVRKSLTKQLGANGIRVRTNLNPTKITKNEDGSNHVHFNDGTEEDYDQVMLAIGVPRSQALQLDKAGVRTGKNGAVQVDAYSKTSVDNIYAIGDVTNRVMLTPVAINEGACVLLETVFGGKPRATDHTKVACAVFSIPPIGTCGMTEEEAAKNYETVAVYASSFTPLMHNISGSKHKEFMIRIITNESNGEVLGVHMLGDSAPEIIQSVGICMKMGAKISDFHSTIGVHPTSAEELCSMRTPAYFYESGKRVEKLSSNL

The term Ki denotes a measure of affinity in units of concentration, obtained from inhibition or displacement. As a reminder, the CC50 is the concentration at which the toxic effect on the cells reaches its halfway point. Take `NC(=O)N/N=C/c1ccc([N+](=O)[O-])o1` [Nitrofurazone]: the Type of inhibition entry in data set [1] is listed as “Uncompetitive”. The Ki in data set [1] (setting [4]) turned out to be 25.8 ± 4.83 µM. Further, the CC50 at 72 h in data set [2] was determined as 39.6 ± 7.91 µM; in data set [3], 40.6 ± 1.97 µM.
`O=C1NN(c2ccc(F)c(Cl)c2)C(=O)C1=Cc1ccc([N+](=O)[O-])o1` [PYZD-4409, 1-(3-chloro-4-fluorophenyl)-4-[(5-nitro-2-furyl)methylene]-3,5-pyrazolidinedione]: in data set [1], the Type of inhibition result was “Competitive”. In addition, the Ki in data set [1] (setting [4]) amounted to 7.63 ± 2.56 µM. In addition, the CC50 at 72 h was found to be 51.7 ± 8.03 µM in data set [2] and 20.8 ± 6.4 µM in data set [3].
For the molecule `O=C1CN(/N=C/c2ccc([N+](=O)[O-])o2)C(=O)N1` [Nitrofurantoin], in data set [1], the Ki was found to be 31.2 ± 4.94 µM and the Type of inhibition entry is on record as “Uncompetitive”. For the same molecule, the CC50 at 72 h in data set [2] is 37.2 ± 7.05 µM. The half-maximal cytotoxic concentration (CC50) at 72 h in data set [3] worked out at 56.3 ± 9.06 µM.
For the molecule `N#Cc1ccc([N+](=O)[O-])o1` [5-nitro-2-furonitrile, 5-Nitro-2-furonitrile], in data set [1], the Type of inhibition result is “Competitive”. For the same molecule, the inhibition constant (Ki) in data set [1] (setting [4]) was 24.8 ± 1.43 µM. Further, the CC50 at 72 h worked out at 31.2 ± 5.04 µM in data set [2] and 25.8 ± 0.6 µM in data set [3].

The values are drawn from article PMC12344264, “Mechanistic, in-silico and in vitro studies with nitrofurans reveal potent leishmanicidal activity and inhibition of trypanothione reductase” (International Journal for Parasitology: Drugs and Drug …, 2025).
